Read-outs that look alike come from different tables or passages of the source.
What was measured:
[1] = system: Entzündungsschmerz der Ratte; experiment: Analgesic effect against inflammatory pain in the rat (RANDALL-SELITTO, yeast-inflamed paw, pain threshold); format: in vivo; conditions: oral (gavage), male Chbb:THOM rats, dose raising the pain threshold by 50 % versus controls
Method: 1) Wirkung gegen den Entzündungsschmerz der Ratte
Die Versuchsanordnung entsprach der von RANDALL-SELITTO (Arch. int. Pharmacodyn. 111, 409 (1957) angegebenen.
Männliche Chbb:THOM-Ratten mit einem Gewicht zwischen 100 und 130 g erhielten eine subplantare Injektion von 0,1 ml einer 5%igen Suspension von Hefezellen in 5,55 %iger Glukoselösun^g in eine Hinterpfote. […] 2 1/4 Stunden nach der Injektion des Phlogisticums erhielten die Tiere verschiedene Dosen der Prüfsubstanz als Verreibung in 1 %iger Methylzellulose (1 ml/100 g Tier) per Schlundsonde beigebracht. Kontrolltiere erhielten entsprechende Volumina des Vehikels. ― 90 bzw. 45 min nach Applikation der Prüfsubstanz (d.h. 3 Stunden nach der subplantaren Injektion der Hefesuspension) wurde bei den Ratten die Schmerzschwelle in g Auflagedruck/Pfote bestimmt.
Aus der nach den verschiedenen Dosen der Prüfsubstanz ge- i messenen Schmerzschwelle wurde nach linearer Regressionsanalyse nach LINDER (Statistische Methoden, 4. Aufl. pp. 148-162, Birkhäuser, Basel 1964) eine ED50 mit den Vertrauensgrenzen nach FIELLER (Quart. J. Pharm. Pharmacol. 17, 117 (1944) als jene Dosis ermittelt, die eine Anhebung der Schmerzschwelle um 50 % gegenüber der der Kontrollen bewirkte.

Wärmeschmerz der Maus = experiment: Analgesic effect against heat pain in the mouse (hot plate, modified CHEN and BECKMAN); format: in vivo; conditions: oral (gavage), male Chbb:NMRI(SPF) mice, plate 52°C, dose giving 100 % prolongation of reaction time, read-out: Analgesie Maus "hot plate" [ED100]
Method: 2) Wirkung gegen den Wärmeschmerz der Maus
Die Prüfung erfolgte mit Hilfe einer Modifikation der Ver- suchsanordnung nach CHEN u. BECKMAN (Science 113, 631 (1951) an männlichen Chbb:NMRI(SPF)-Mäusen mit einem mittleren Gewicht von 20 g. Die "heiße Platte" bestand aus Aluminium und hatte eine Oberflächentemperatur von 52°C. ;
Die Prüfsubstanz wurde als Verreibung in 1 %iger-Methylzellulose (0,1 ml/10 g maus) per Schlundsonde beigebracht. Vor der Behandlung mit Prüfsubstanz wurden die Tiere im Abstand von 30 min. zweimal auf die heiße Platte gesetzt. Es wurde ihre individuelle Reaktionszeit ermittelt. Nach Gabe der Prüfsubstanz wurde in Abständen von 30 min. die Reaktionszeit erneut gemessen.
Aus der mit den verschiedenen Dosen der Prüfsubstanz erzielten gemittelten maximalen Verlängerung der Reaktionszeit wurde nach linearer Regressionsanalyse nach LINDER (s.o.) eine ED100 mit den Vertrauensgrenzen nach FIELLER (s.o.) als die Dosis berechnet, die zu einer 100 %igen Verlängerung der Reaktionszeit führte.

[2] = system: Körpertemperatur der Ratte; experiment: Effect on body temperature of the rat (rectal temperature lowering); format: in vivo; conditions: oral (gavage), Chbb:THOM rats, dose lowering body temperature by 1,5°C, read-out: Körpertemperatursenkg. Ratte [ED-1,5°C]
Method: 3. Wirkung auf die Körpertemperatur der Ratte
Die Prüfung der temperatursenkenden Wirkung erfolgte durch; die Kontrolle des Verlaufes der rektal gemessenen Körper- temperatur von Chbb:THOM-Ratten mit einem Gewicht zwischen 125-150 g über im Rektum verweilende Thermoelemente. Die Prüfsubstanz wurde als Verreibung in 1 %iger Methylzellulose (1,0 ml/100 g Tier) per Schlundsonde beigebracht. Aus den nach Gabe der verschiedenen Dosen der Prüfsubstanz gewonnenen Werten für die mittlere maximale Temperatursenkung wurde nach linearer Regressionsanalyse nach LINDER (s.o.) eine ED-1,5°C als jene Dosis berechnet, die eine Senkung der Körpertemperatur um 1,5°C bewirkte.

[3] = Acute toxicity in the mouse; conditions: in vivo, oral (gavage), Chbb:NMRI(SPF) mice of both sexes, deaths within 14 days, read-out: Akute Toxizität Maus [LD50]
Method: 4. Akute Toxizität an der Maus
Die Bestimmung der akuten Toxizität erfolgte an Chbb:NMRI (SPF)-Mäusen beider Geschlechter mit einem mittleren Gewicht von 20 g. Die Prüfsubstanz wurde als Verreibung in 1 %iger Methylzellulose (0,5 ml/10 g Tier) per Schlundsonde verabfolgt. Die Berechnung der LD50 erfolgte (soweit möglich) nach LITCHFIELD u. WILCOXON (J. Pharmacol. exp. Therap. 96, 99 (1949)) aus dem Prozentsatz der Tiere, die nach den verschiedenen Dosen innerhalb von 14 Tagen verstarben.

In the case of `COc1cc2sc(N)nc2cc1Cl` [2-Amino-5-chlor-6-methoxy-benzothiazol], the ED50 ([1]; 0.75 h, 45 min after application, read-out: Analgesie Ratte nach RANDALL-SELITTO 45 min nach Appl. [ED50]) is reported as 79 mg/kg, the ED50 ([1]; 1.5 h, 90 min after application, read-out: Analgesie Ratte nach RANDALL-SELITTO 90 min nach Appl. [ED50]) is reported as 80 mg/kg and the ED100 (Wärmeschmerz der Maus) is reported as 144 mg/kg. For the same compound, the ED (-1.5 degC) [2] was 101 mg/kg and the LD50 at 336 h [3] was 3050 mg/kg.

— patent EP0039809A2, “2-Amino-5-halogen-benzothiazoles, process for preparing them and medicines containing them” (Dr. Karl Thomae GmbH, priority 1980, dated 1981)
